# Measurements reported in US4871774A, “Medical treatment” (The Boots Company PLC, priority 1987, dated 1989).
# Tested on: dopamine reuptake; unilateral nigrostriatal lesioned rats
# Assay: Ipsilateral circling behaviour of unilateral nigrostriatal (6-OHDA) lesioned rats
# Type: in vivo, rat (CD)
# Settings: 30 mg/kg oral
# Description: The two tracts of the nigrostriatal dopamine system are independent and are located on either side of the midline of the brain. When one tract is destroyed using the specific neurotoxin, 6-hydroxydopamine (6-OHDA), rats will display characteristic circling behaviour after injection of dopaminergic drugs. The direction of rotation, however, is dependent on the stimulus employed. Drugs which inhibit dopamine reuptake can only function on the unlesioned side of the brain and induce circling towards the lesion site (known as ipsilateral circling.)
# Male CD rats (250-300 g: Charles River) were anaesthetised with `Equithesin` type anaesthetic (3.2 ml/kg i.p.) and secured in a stereotaxic frame (David Kopf Small Animal Stereotaxic Instrument DKI 900). After shaving the area, a saggital incision of 1.5-2 cm was made and skin flaps dissected from the skull. A small hole was made in the skull, using a No. 6 dental burr, to allow the tip of a 30 s.w.g. stainless steel cannula to be inserted to the left substantia nigra. This was located by using the following co-ordinates, using skull landmark bregma as the zero reference point; rostral-caudal -2.8; medial-lateral +2.0; dorsal-ventral -8.0 from the surface of the dura, all co-ordinates measured in millimetres. This system of co-ordinates is a modification of the de Groot system as described by Pellegrino et al (A stereotaxic atlas of the rat brain, 2nd Edition, Plenum Press 1979). 6-Hydroxydopamine HBr (2 μg/μl, as base: Sigma Chemical Co.) was injected into the left substantia nigra at 1 μl/min; a total of 8 μg was administered over a period of 4 minutes using an infusion pump (Braun `Perfusor` ED2). After removal of the cannula, the skin flaps were joined with a single everted suture and the animal allowed to recover.
# After 21 days, the circling behaviour of the rats was examined. They were placed, individually, in circular plastic arenas (30 cm diameter×12 cm high) for 1 hour, with no access to food or water during this period. […] One `turn` consisted of rotation through 360° in either direction. As rats were always lesioned on the left side of the brain, anticlockwise turns were ipsilateral.
# Control values were determined for all rats by observing their spontaneous circling behaviour in the arenas without prior dosing. The mean turns per minute was always less than 1.
# The rats were challenged with an intraperitoneal dose of methamphetamine (2 mg/kg) and immediately placed in the arenas. In these experiments circling behaviour was monitored during two periods, 0-1 h and 4-5 h after dosing. Rats giving a mean of more than 5 ipsilateral turns per minute during the first hour in response to methamphetamine were used in subsequent tests. Following selection, the rats were used in groups of 5 or more rats to test the drug under investigation.
compound,measurement,setting,value
"CC(C)CC(N(C)C)C1(c2ccc(Cl)cc2)CCC1.Cl.O (stereo not drawn) [N,N-dimethyl-1-[1-(4-chlorophenyl)cyclobutyl]-3-methylbutylamine hydrochloride monohydrate]",duration of action as an inhibitor of dopamine reuptake (in words),,long lasting action as an inhibitor of dopamine reuptake
same,ipsilateral turns/min (Mean ± SEM),0-1 hrs after dosing,3.0 ± 0.6 turns/min
same,ipsilateral turns/min (Mean ± SEM),4-5 hrs after dosing,6.7 ± 1.4 turns/min
same,ipsilateral turns/min (Mean ± SEM),8-9 hrs after dosing,8.6 ± 1.8 turns/min
same,ipsilateral turns/min (Mean ± SEM),24-25 hrs after dosing,6.2 ± 1.7 turns/min
same,ipsilateral turns/min (Mean ± SEM),48-49 hrs after dosing,1.7 ± 0.5 turns/min
